Assay results taken from patent publication US9309247B2, “2-substituted imidazo[4,5-D]phenanthroline derivatives and their use in the treatment of cancer” (Aptose Biosciences Inc., priority 2013, dated 2016).

Key:
leukemia cells HL60 = assay: XTT cell proliferation assay, HL60; assay type: cell-based, human; conditions: 5 days incubation, read-out: Antiproliferative activity, Leuk. HL60
Experimental: (§1) Exemplary compounds 1-8 were tested for anti-cancer activity in vitro using human renal cancer cells (ACHN and CAK-1), human pancreatic cells (BXPC3 and SU-86-86), human prostate cancer cell (DU14), human colon carcinoma cells (HT-29 and KM-12), leukemia cells (HL60), brain cancer/tumour cells (SK-A-AS, U87-MG), and human non-small cell lung cancer cells (H460). Compounds 1-8 are the specific embodiments of Formula (I) and Formula (IV) as described above in this application.
(§2) The cells were maintained as a monolayer in a growth medium; McCoy's 5A modified medium (Sigma, St. Louis, Mo.), supplemented with 2 mM L-glutamine (Gibco, Grand Island, N.Y.), 10% fetal bovine serum (FBS) (Multicell, WISENT Inc. St-Bruno, QC), antibiotic-antimycotic (Multicell), at 37° C. in a 5% CO2-humidified incubator. Cells were transferred onto 150 mm tissue culture plates and grown until sub-confluency (70-80%) prior to their use. The in vitro antiproliferative activity of compounds was evaluated by incubating the cells with varying concentrations of exemplary compounds as shown in Table 1 for 5 days. The efficacy of these compounds in this cell proliferation assay was measured based in the ability of live cells to reduce the tetrazolium salt XTT to orange colored compounds of formazan (XTT cell proliferation kit IT, Roche Applied Science, Montreal, QC).

[1] = test system: non-small cell lung cancer cells HOP-92; assay: XTT cell proliferation assay, HOP-92; assay type: cell-based, human; conditions: 5 days incubation, read-out: Antiproliferative activity, NSCLC HOP-92
Experimental: [The procedure below names another cell line; the source lists this cell line under the same test.] as §1, §2

Glioblastoma (U87-MG) = Glioblastoma (U87-MG) xenograft model; assay type: in vivo, CD-1 female nude mice; conditions: vs vehicle-treated control, FIG. 7
Experimental: (§3) The ability of compound 1 to inhibit colon tumour growth in vivo was tested as follows. CD-1 female nude mice (7 mice per treatment group, 6-7 weeks) were injected […] with human colon adenocarcinoma cells HT-29 cells (3×10^6 cells in 0.1 ml PBS). Treatment of the mice with vehicle or 50 mg/kg/d of […] was initiated 5 days post-inoculation (size of tumours=20-40 mm^3) for 7-day cycles of five days followed by a 2 day break for 5 weeks. The size of the tumours was measured over the course of the experiment using calipers, and the weight of the tumours was measured after the animals were sacrificed.
(§4) The ability of compound 1 to inhibit renal cell carcinoma growth (see FIG. 4), to inhibit pancreatic carcinoma growth (FIG. 5), to inhibit large-cell lung carcinoma cell growth (FIG. 6), and to inhibit Glioblastoma cell growth (FIG. 7) was also tested following the general procedure as discussed above.

[2] = test system: human non-small cell lung cancer cells H460; assay: XTT cell proliferation assay, H460; assay type: cell-based; conditions: 5 days incubation, read-out: Antiproliferative activity, NSCLC H460
Experimental: as §1, §2

[3] = test system: human pancreatic cells SU-86-86; assay: XTT cell proliferation assay, SU-86-86; assay type: cell-based; conditions: 5 days incubation, read-out: Antiproliferative activity, Pancreas SU-86-86
Experimental: as §1, §2

[4] = test system: non small cell lung cancer (H460); assay: Non small cell lung cancer (H460) xenograft model; assay type: in vivo, CD-1 female nude mice; conditions: large-cell lung carcinoma H460; vs vehicle-treated control; FIG. 6
Experimental: as §3, §4

[5] = test system: human renal cancer cells ACHN; assay: XTT cell proliferation assay, ACHN; assay type: cell-based; conditions: 5 days incubation, read-out: Antiproliferative activity, Kidney ACHN
Experimental: as §1, §2

[6] = test system: non-small cell lung cancer cells HOP-62; assay: XTT cell proliferation assay, HOP-62; assay type: cell-based, human; conditions: 5 days incubation, read-out: Antiproliferative activity, NSCLC HOP-62
Experimental: [The procedure below names another cell line; the source lists this cell line under the same test.] as §1, §2

[7] = test system: human Burkitt's lymphoma Ramos cells; assay: Cell growth inhibition assay, Ramos; assay type: cell-based; conditions: five days of incubation, XTT; read-out: IC50 Ramos (hs)
Experimental: In this study, compounds 1-8 were screened in vitro against a panel of four mouse lymphoma cell lines and two human lymphoma cell line for cell growth inhibition activity. Following treatment, half maximal inhibitory concentrations (IC50) were determined with the objective of selecting the most efficacious compounds for evaluation of in vitro absorption, distribution, metabolism, and excretion (ADME) screening.
Similarly, human Burkitt's lymphoma Ramos cells (ATCC CRL-1596) were grown in suspension in Roswell Park Memorial Institute (RPMI) 1640 medium supplemented with 10% fetal bovine serum (FBS), 10 mM HEPES KOH pH 7.4, and 2 mM sodium pyruvate. Mouse P388D1 (ATCC CCL-46) and WR19L (ATCC TIB-52) cells were grown in suspension in Dulbecco's Modified Eagle Medium (DMEM) with 10% fetal bovine serum (FBS), 10 mM HEPES, and 2 mM sodium pyruvate. Mouse WEHI231 (ATCC CRL-1702) and EL4 (ATCC TIB-39) cells were grown in suspension in DMEM with 10% fetal bovine serum (FBS), 10 mM HEPES KOH pH 7.4, 2 mM sodium pyruvate, and 0.05 mM β-mercaptoethanol. All cells were maintained at 37° C. in an atmosphere of 5% CO2 in air. Logarithmically growing cells were routinely sub-cultured twice weekly. Briefly, cells were collected by centrifugation, resuspended in pre-warmed media, and diluted 1:10 into a 75 cm^2 flask.
Cells were subcultured and 4×10^3 cells (in 50 μL) were transferred to each well in a Falcon 96-well tissue culture plate. Exemplary compounds were dissolved in pure dimethyl sulphoxide (DMSO) at a concentration of 10 mM. From this 10 mM stock solution, 12 successive serial dilutions were made in DMSO (2.5 fold dilutions), ranging from 0.52 μM to 10 mM. Using these stock dilutions, 5 μL of each were added to 500 μL of media, and 50 μL of this was added to the cells. The final concentrations being tested ranged from 0.0026 μM to 50 μM. Each concentration was tested in triplicate, and DMSO and untreated cells were also included as controls. After five days of incubation with the compounds, cell viability was determined using the XTT cell proliferation kit (Roche, Cat. No. 11 465 015 001). Following the XTT protocol, 4.5-24 hours after addition of the reagent, the plates were read in a μQuant 96-well plate spectrophotometer (Biotek Instruments Inc.) and the results analyzed to determine the IC50.

IC50 (leukemia cells HL60): 30 nM
IC50 [1]: 160 nM
IC50 [2]: 160 nM
IC50 [5]: 170 nM
IC50 [6]: 210 nM
IC50 [7]: 163 nM
Compound: FC1(F)Oc2ccc(-c3nc4c5cccnc5c5ncccc5c4[nH]3)cc2O1 [Compound 1]
inhibition of tumour growth, as measured by tumour size (Glioblastoma (U87-MG)): able to inhibit tumour growth
IC50 [3]: 180 nM
inhibition of tumour growth, as measured by tumour size [4]: able to inhibit tumour growth
